Assay results reported in patent publication US6472421B1, “Methods for treating, preventing, and reducing the risk of the onset of alzheimer's disease using an HMG CoA reductase inhibitor” (Nymox Corporation, priority 1998, dated 2002).

Tests used:
[1] = test system: Alzheimer's disease (AD) in patients over the age of 60; assay: Health care database study at three hospitals: frequency of AD by medication (ICD-9-CM codes); assay type: in vivo, human; conditions: for Prevalence Of AD/1000 Hines / Prevalence Of AD/1000 Loyola / Prevalence Of AD/1000 Phoenix / Prevalence Of AD/1000 Combined: patients 60 years or over; for Prevalence Of AD/1000 Hines: Hines Veterans Authority Medical Center; for Prevalence Of AD/1000 Loyola: Loyola Medical Center; for Prevalence Of AD/1000 Phoenix: Phoenix Veterans Authority Medical Center; for Prevalence Of AD/1000 Combined: data from the three sites combined; for effect on prevalence / risk of AD (in words): patients over the age of 60, compared with total patient population
Description: To perform the study, relational databases at three different hospitals (Loyola Medical Center (“Loyola”), Hines Veterans Authority Medical Center (“Hines”), and Phoenix Veterans Authority Medical Center (“Phoenix”)) were searched to obtain aggregate data about the frequency of AD. Each database included clinical information that facilitated identification of potential relationships between specific items. […] Patient privacy was protected by using only aggregate patient data.
Each database was sorted to exclude any subjects under the age of 60 and any entries that contained patients' names but no medical information pertinent to the study. This yielded a total patient sample size for the three databases of 63,296 patients.
The frequency of AD for each medication was then determined using ICD-9-CM codes.
Alzheimer's disease was identified under the ICD-9-CM code of 331.0, but because other codes also apply to AD, the codes 331.2, 290.0, 290.10-13, 290.20 and 290.3 were also included as AD cases based on interviews with the physicians at each center who diagnosed or oversaw the diagnosis of patients with AD and on their coding practices for AD. The diagnosis of AD was made according to the criteria of the National Institute of Neurological and Communicative Disorders and Stroke (NINCDS) and the Alzheimer's Disease and Related Disorders Association (ADRDA) Work Group (McKhann et al., “Clinical Diagnosis of Alzheimer's Disease: Report of the NINCDS-ADRDA Work Group under the Auspices of Department of Health and Human Services Task Force on Alzheimer's Disease,” Neurology, 34:939-944 (1984).) Each AD patient had received either a CT scan or MRI to exclude other diagnoses, and had been screened for other metabolic, toxic, or affective disorders that may produce dementia.
Statistics were determined by comparisons of proportions using chi square analyses. All statistics listed P values and 95% confidence intervals.

Alzheimer's disease (AD) = conditions: comparison figures, no source given; cited from earlier work

| Molecule | Prevalence Of AD/1000 Hines [1] | Prevalence Of AD/1000 Loyola [1] | Prevalence Of AD/1000 Phoenix [1] | Prevalence Of AD/1000 Combined [1] | effect on prevalence / risk of AD (in words) [1] | degree of reduction (of AD risk), other putative AD therapeutics (Alzheimer's disease (AD)) |
| --- | --- | --- | --- | --- | --- | --- |
| CC(C)NCC(O)COc1ccc(CC(N)=O)cc1 (stereo not shown) [Atenolol, atenolol] | 7.1 /1000 | 19.2 /1000 | 19.0 /1000 | 14.8 /1000 | higher than that of the total patient cohort |  |
| C[C@H](CS)C(=O)N1CCC[C@H]1C(=O)O [Captopril, captopril] | 8.4 /1000 | 13.6 /1000 | 10.6 /1000 | 10.6 /1000 | did not show any significant reduction |  |
| NS(=O)(=O)c1cc(C(=O)O)c(NCc2ccco2)cc1Cl [Furosemide, furosemide] | 9.0 /1000 | 16.7 /1000 | 14.1 /1000 | 8.9 /1000 | did not show any significant reduction |  |
| COCCc1ccc(OCC(O)CNC(C)C)cc1 (stereo not shown) [Metoprolol, metoprolol] | 4.4 /1000 | 15.3 /1000 | 12.4 /1000 | 12.1 /1000 | higher than that of the total patient cohort |  |
| CC[C@H](C)C(=O)O[C@H]1C[C@H](O)C=C2C=C[C@H](C)[C@H](CC[C@@H](O)C[C@@H](O)CC(=O)O)[C@H]21 [Pravastatin, 1-naphthalene-hepatnoic acid, 1,2,6,7,8,8a-hexahydro-β,δ,6-trihydroxy-2-methyl-8-(2-methyl-1-oxobutoxy)] | 1.1 /1000 | 0 /1000 | 8.3 /1000 | 4.3 /1000 |  |  |
| CC(C)NCC(O)COc1cccc2ccccc12 (stereo not shown) [Propanolol, propanolol] | 3.9 /1000 | 42.4 /1000 | 20.7 /1000 | 17.5 /1000 | higher than that of the total patient cohort |  |
| CCC(C)(C)C(=O)O[C@H]1C[C@@H](C)C=C2C=C[C@H](C)[C@H](CC[C@@H]3C[C@@H](O)CC(=O)O3)[C@H]21 [Simvastatin, simvastatin] |  | 8.1 /1000 | 11.2 /1000 | 11.2 /1000 |  |  |
| Cc1c(C)c2c(c(C)c1O)CC[C@@](C)(CCC[C@H](C)CCC[C@H](C)CCCC(C)C)O2 [alpha-tocopherol] |  |  |  |  |  | 52% |
| estrogen |  |  |  |  |  | 25-31% |
